Data: the supplement of paper PMC11451515

Test system: P12-Ichikawa
Test: cell viability relative to DMSO control; higher = less cytotoxic
Conditions: 48 h
Method in brief: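 Leukemia cells (NOMO1 or SEM, 500 cells/well; P12-Ichikawa, 1000 cells/well) were seeded in 5 μl in 1536-well plates after at least four passages of adaptation to each medium. They received library compounds in DMSO by pin dosing, 11 threefold points from 47 μM to 0.79 nM. Luminescence with CellTiter-Glo One was read after 48 h at 37°C. Viability is stated per plate relative to DMSO wells, with cell-free wells as background.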

[1] = HPLM + 10% dialyzed FBS, 0.000781 µM
[2] = HPLM + 10% dialyzed FBS, 0.00234 µM
[3] = HPLM + 10% dialyzed FBS, 0.00702 µM
[4] = HPLM + 10% dialyzed FBS, 0.0211 µM
[5] = HPLM + 10% dialyzed FBS, 0.0632 µM
[6] = HPLM + 10% dialyzed FBS, 0.19 µM
[7] = HPLM + 10% dialyzed FBS, 0.569 µM
[8] = HPLM + 10% dialyzed FBS, 1.71 µM
[9] = HPLM + 10% dialyzed FBS, 5.12 µM
[10] = HPLM + 10% dialyzed FBS, 15.4 µM
[11] = HPLM + 10% dialyzed FBS, 46.1 µM
[12] = RPMI 5 mM glucose + 10% FBS, 0.000781 µM
[13] = RPMI 5 mM glucose + 10% FBS, 0.00234 µM
[14] = RPMI 5 mM glucose + 10% FBS, 0.00702 µM
[15] = RPMI 5 mM glucose + 10% FBS, 0.0211 µM
[16] = RPMI 5 mM glucose + 10% FBS, 0.0632 µM
[17] = RPMI 5 mM glucose + 10% FBS, 0.19 µM
[18] = RPMI 5 mM glucose + 10% FBS, 0.569 µM
[19] = RPMI 5 mM glucose + 10% FBS, 1.71 µM
[20] = RPMI 5 mM glucose + 10% FBS, 5.12 µM
[21] = RPMI 5 mM glucose + 10% FBS, 15.4 µM
[22] = RPMI 5 mM glucose + 10% FBS, 46.1 µM
[23] = RPMI 5 mM glucose + 10% dialyzed FBS, 0.000781 µM
[24] = RPMI 5 mM glucose + 10% dialyzed FBS, 0.00234 µM
[25] = RPMI 5 mM glucose + 10% dialyzed FBS, 0.00702 µM
[26] = RPMI 5 mM glucose + 10% dialyzed FBS, 0.0211 µM
[27] = RPMI 5 mM glucose + 10% dialyzed FBS, 0.0632 µM
[28] = RPMI 5 mM glucose + 10% dialyzed FBS, 0.19 µM
[29] = RPMI 5 mM glucose + 10% dialyzed FBS, 0.569 µM
[30] = RPMI 5 mM glucose + 10% dialyzed FBS, 1.71 µM
[31] = RPMI 5 mM glucose + 10% dialyzed FBS, 5.12 µM
[32] = RPMI 5 mM glucose + 10% dialyzed FBS, 15.4 µM
[33] = RPMI 5 mM glucose + 10% dialyzed FBS, 46.1 µM

Structure (SMILES)	cell viability [1]	cell viability [2]	cell viability [3]	cell viability [4]	cell viability [5]	cell viability [6]	cell viability [7]	cell viability [8]	cell viability [9]	cell viability [10]	cell viability [11]	cell viability [12]	cell viability [13]	cell viability [14]	cell viability [15]	cell viability [16]	cell viability [17]	cell viability [18]	cell viability [19]	cell viability [20]	cell viability [21]	cell viability [22]	cell viability [23]	cell viability [24]	cell viability [25]	cell viability [26]	cell viability [27]	cell viability [28]	cell viability [29]	cell viability [30]	cell viability [31]	cell viability [32]	cell viability [33]
CN1CCN(c2c(F)cc3c(=O)c(C(=O)O)cn(CCF)c3c2F)CC1	99.8%	101%	106%	112%	112%	111%	111%	115%	121%	120%	108%	101%	104%	95.5%	108%	109%	121%	107%	108%	103%	112%	111%	95.9%	104%	110%	107%	110%	107%	110%	108%	119%	115%	116%
O=C([O-])C[C@H](O)C[C@H](O)/C=C/c1c(C2CC2)nc2ccccc2c1-c1ccc(F)cc1	107%	111%	115%	110%	117%	114%	110%	103%	69.3%	49.1%	26.2%	110%	117%	116%	113%	124%	116%	105%	87.9%	52.3%	19.5%	14.7%	113%	114%	113%	107%	119%	116%	115%	93.6%	58.2%	36.9%	19.3%
Cc1c(-c2cccc3c(CCCOc4cccc5ccccc45)c(C(=O)O)n(Cc4cccnc4)c23)c(COc2ccc(N3CCN([S+](=O)([O-])N(C)C)CC3)cc2)nn1C	96%	94.3%	87.4%	93.2%	97.4%	91.6%	88.5%	85.8%	91%	80.3%	71.6%	92.1%	87.7%	94.1%	85.6%	87.2%	92.7%	84.2%	88%	91.2%	87%	74%	91.7%	93.4%	91.4%	95.3%	93%	88.2%	82.8%	90.8%	81.3%	82.4%	67%
COc1cc2ncn(-c3cc(OCc4ccccc4[S+](C)(=O)[O-])c(C#N)s3)c2cc1OC	101%	100%	93.8%	94%	102%	95.2%	96.7%	94.1%	84.5%	92%	77.5%	96.3%	99%	96.8%	97.8%	100%	95.3%	94.4%	89.7%	88.7%	91.3%	87.6%	90.1%	92.3%	87.7%	94.9%	94.8%	98%	95.4%	92.5%	82.7%	80%	73.6%
O=[N+]([O-])c1ncc[nH]1	93.7%	88%	88.2%	83.4%	97%	102%	88.4%	81%	84.5%	75.4%	80.5%	88%	91%	84.6%	84.8%	91.6%	86.9%	78%	74.1%	81%	70.5%	78.8%	88.7%	86.1%	82.7%	98.4%	104%	99.9%	65.7%	78%	98%	71%	80.5%
N\C1=N\C2=C(N=C[N]2COCCO)C(=O)N1	98.2%	109%	106%	107%	111%	112%	111%	112%	109%	105%	91.3%	93.7%	112%	106%	115%	110%	99.4%	110%	106%	106%	92.3%	84.6%	97.2%	97.8%	111%	98.2%	105%	97.3%	110%	94.7%	98.9%	102%	85.1%
Clc1cccc(-n2nnnc2NCc2ccccc2Oc2ccccn2)c1Cl	120%	120%	116%	124%	123%	136%	133%	133%	133%	131%	127%																						
Cc1nc2cc(C(=O)N3CCC4(CC3)CC(=O)c3c(cnn3C(C)C)C4)ccc2[nH]1	103%	121%	107%	120%	116%	119%	122%	110%	93.3%	112%	18%																						
CCC(C)N1\N=C/N(C1=O)C2=CC=C(C=C2)N3CCN(CC3)C4=CC=C(OC[C@H]5CO[C@@](C[N]6C=NC=N6)(O5)C7=CC=C(Cl)C=C7Cl)C=C4 (stereo partly drawn)	99.9%	109%	114%	120%	111%	115%	101%	101%	103%	98.8%	104%	111%	111%	119%	114%	108%	115%	115%	99.7%	108%	110%	97.2%	111%	113%	108%	111%	113%	111%	106%	105%	100%	98.5%	95.7%
